# Tested on: neurites emerging from the neurospheres
# Experiment: Maximum extension of neurites emerging from neurospheres in modified co-culture microdevice
# Format: cell-based, human
# Details: NGF added or not to the matrigel in the middle punched hole; 3N medium or 75% CM plus HEKn; FIG. 14C
# Method: Keratinocytes moved faster than the dendrites and since removing the microdevice sometimes meant that neurospheres were pulled from the substrate, a hole between the wells of the same pair was punched and the keratinocytes were placed within this hole (FIG. 13A, red arrow). The region where there was a predominance of migrating neurites was observed and the highest migration radius was measured (FIG. 13B, blue arrow).
# To further test this modified co-culture microdevice, the culture media (3N versus 75% CM from HEKn) and the presence (or not) of matrigel in the middle hole were compared by measuring the maximum extension of the neurites emerging from the neurospheres (FIG. 14A). There were no statistically significant differences. Then, the extension of neurites in the presence or absence of keratinocytes in the hole were compared. Again, no differences were observed (FIG. 14B). Finally, another variable was tested: adding NGF or not to the matrigel in the middle punched hole.
substance,measurement,value
nerve growth factor [NGF],maximum extension of the neurites (neurite migration),trend of NGF to increase migration
